Data set [1] concerns HCT-116. Description: Induction of apoptosis in human HCT-116 cells assessed as late apoptotic cells at 5 uM incubated for 3 days by annexinV-FITC/propidium iodide staining based flow cytometry (reference value: 8.71 %). In kind it is functional. The conditions noted are these: time 3 day.
The test system of data set [2] is HCT-116. Nature of the data set: Inhibition of Wnt/beta-Catenin signaling in human HCT-116 cells assessed as decrease in total beta-catenin levels at 10 uM by Western blot analysis. The data set is classed as cell-based. For orientation: Immunoblotting shows a protein as a band on a membrane.
Data set [3] is described as follows: Toxicity in […] assessed as effect on body weight at 500 mg/kg, ip administered as single dose and measured on day 7 (reference value: 26.00 +/- 3.16 g). In kind it is organism-based. The conditions noted are these: in vivo.
Data set [4] is described as follows: Toxicity in […] assessed as rat death administered as single dose at 500 mg/kg, ip. The data set is classed as organism-based. The conditions noted are these: in vivo.
Data set [5] has as its system HCT-116. Nature of the data set: Induction of cell cycle arrest in human HCT-116 cells assessed as S phase cells at 5 uM incubated for 3 days by propidium iodide staining based flow cytometry (reference value: 11.26 %). The conditions noted are these: time 3 day. The data set is classed as functional. (In flow cytometry, cells or beads pass a laser one at a time.)
Data set [6] has as its system HCT-116. Nature of the data set: Induction of apoptosis in human HCT-116 cells assessed as viable cells at 1 uM incubated for 3 days by annexinV-FITC/propidium iodide staining based flow cytometry (reference value: 60.0 %). The data set is classed as functional. The conditions noted are these: HCT-116, 72 h, time 3 day, read-out: Activity.
Data set [7] in a line: Toxicity in […] assessed as morphological changes in duodenum at 500 mg/kg, ip by H&E staining based histopathological analysis. In kind it is organism-based. The conditions noted are these: in vivo.
Data set [8] concerns HCT-116. Nature of the data set: Induction of apoptosis in human HCT-116 cells assessed as late apoptotic cells at 1 uM incubated for 3 days by annexinV-FITC/propidium iodide staining based flow cytometry (reference value: 8.71 %). The data set is classed as functional. The conditions noted are these: time 3 day.
Data set [9] deals with HCT-116. Description: Induction of cell cycle arrest in human HCT-116 cells assessed as G0/G1 phase cells at 1 uM incubated for 3 days by propidium iodide staining based flow cytometry (reference value: 68.35 %). The data set is classed as functional. The conditions noted are these: time 3 day.
Data set [10] can be described thus: Toxicity in BALB/c nude mouse xenografted with human HCT116 cells at 25 to 100 mg/kg, ip administered once daily for 28 days. The data set is classed as organism-based, HCT-116. The conditions noted are these: in vivo, 672 h, dose 25-100 mg/kg, time 28 day. A general note: A xenograft is tissue or cells of one species grown in another, often human tumour cells in immunodeficient mice.

For data set [11], the system named is HCT-116. Description: Inhibition of PARP in human HCT-116 cells assessed as decrease in pADPr levels at 10 uM by Western blot analysis. In kind it is cell-based.
For data set [12], the system named is HCT-116. Nature of the data set: Antitumor activity against human HCT-116 cells xenografted in BALB/c nude mouse assessed as tumor growth inhibition at 25 mg/kg, ip administered once daily for 28 days. The data set is classed as functional. The conditions noted are these: HCT-116, 672 h, time 28 day, read-out: TGI.
For data set [13], the system named is HCT-116. Nature of the data set: Inhibition of homologous recombinant repair in human HCT-116 cells assessed as reduction in RAD51 foci formation at 1 uM incubated for 72 hrs by DAPI staining based immunofluorescence analysis. In kind it is functional, cell-based.
The nature of data set [14]: Toxicity in […] assessed as effect on body weight at 500 mg/kg, ip administered as single dose and measured on day 2 (reference value: 23.25 +/- 2.22 g). The conditions noted are these: in vivo. The data set is classed as organism-based.
Data set [15] deals with HCT-116. Nature of the data set: Antiproliferative activity against human HCT-116 cells assessed as inhibition of cell growth incubated for 7 days by MTT assay. The data set is classed as functional, cell-based. The conditions noted are these: HCT-116, 168 h.
Data set [16] deals with HCT-116. Nature of the data set: Induction of apoptosis in human HCT-116 cells assessed as necrotic cells at 1 uM incubated for 3 days by annexinV-FITC/propidium iodide staining based flow cytometry (reference value: 3.65 %). The conditions noted are these: time 3 day. The data set is classed as functional.
The test system of data set [17] is HCT-116. Description: Induction of apoptosis in human HCT-116 cells assessed as necrotic cells at 5 uM incubated for 3 days by annexinV-FITC/propidium iodide staining based flow cytometry (reference value: 3.65 %). The data set is classed as functional. The conditions noted are these: time 3 day.
Data set [18] has as its target T1, Protein mono-ADP-ribosyltransferase PARP12 (Homo sapiens, UniProt Q9H0J9).
T1 sequence (Q9H0J9 whole entry): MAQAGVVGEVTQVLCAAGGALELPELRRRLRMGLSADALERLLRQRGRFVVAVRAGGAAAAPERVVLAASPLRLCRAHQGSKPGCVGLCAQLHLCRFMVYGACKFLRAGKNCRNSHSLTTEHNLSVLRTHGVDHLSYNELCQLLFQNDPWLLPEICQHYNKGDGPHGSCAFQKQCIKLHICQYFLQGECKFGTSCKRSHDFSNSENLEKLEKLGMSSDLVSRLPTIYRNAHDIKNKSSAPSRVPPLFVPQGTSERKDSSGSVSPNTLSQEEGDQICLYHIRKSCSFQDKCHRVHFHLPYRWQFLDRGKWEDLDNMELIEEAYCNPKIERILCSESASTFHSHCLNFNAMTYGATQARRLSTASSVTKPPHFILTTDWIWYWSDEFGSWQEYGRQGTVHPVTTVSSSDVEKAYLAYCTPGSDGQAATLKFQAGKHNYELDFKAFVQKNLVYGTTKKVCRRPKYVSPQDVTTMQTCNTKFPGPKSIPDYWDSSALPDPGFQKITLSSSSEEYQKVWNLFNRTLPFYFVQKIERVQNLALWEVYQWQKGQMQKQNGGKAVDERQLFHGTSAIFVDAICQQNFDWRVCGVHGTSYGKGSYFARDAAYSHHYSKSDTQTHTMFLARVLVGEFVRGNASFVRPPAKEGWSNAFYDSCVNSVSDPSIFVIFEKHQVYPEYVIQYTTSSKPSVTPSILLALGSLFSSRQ
Nature of the data set: Inhibition of PARP-12 (unknown origin).

The nature of data set [19]: Half-life in Sprague-Dawley rat at 10 mg/kg, po or 1 mg/kg, iv. In kind it is ADME, organism-based. The conditions noted are these: in vivo.
Data set [20] deals with HCT-116. Description: Induction of apoptosis in human HCT-116 cells assessed as early apoptotic cells at 1 uM incubated for 3 days by annexinV-FITC/propidium iodide staining based flow cytometry (reference value: 7.67 %). The conditions noted are these: time 3 day. In kind it is functional.
Data set [21] relates to HCT-116. Nature of the data set: Downregulation of BRCA1 protein expression in human HCT-116 cells at 1 uM by Western blot analysis. The data set is classed as functional, cell-based.

The text below walks through data of ChEMBL document CHEMBL5120857, “Rational design, synthesis and biological evaluation of dual PARP-1/2 and TNKS1/2 inhibitors for cancer therapy” (Eur J Med Chem, 2022).

Activity calls are given as the source filed them. The rule behind the calls is not given here.

What is called IC50 is the concentration that gives 50% inhibition. As a reminder, the half-life is how long it takes for the measured level to halve. Read a low half-life as rapid decline.

Take `COc1ccc(NC(=O)c2ccc(NC(=O)N3CCN(C(=O)c4cc(Cc5n[nH]c(=O)c6ccccc56)ccc4F)CC3)cc2)cc1`: the Activity in the data set with HCT-116 [1] is given as 39.5%; in [3] it was 24.25 g; in data set [4], “Non-Toxic”; in the data set with HCT-116 [5], 4.19%; in data set [7], “Non-Toxic”; with HCT-116 [8], 15.3%. For the same molecule, the Activity in the data set with HCT-116 [9] is reported as 59.2%; in [10], “Non-Toxic”; in data set [14], 20.75 g; in the data set on HCT-116 [16], 4.57%; in the data set on HCT-116 [17] it was 8.56%; with HCT-116 [20], 6.86%. Also, the inhibition result in the data set with HCT-116 [2], in the data set on HCT-116 [11] and with HCT-116 [13] was “Active” in each case. Besides, the viability at 1 µM with HCT-116 [6] was 71.3%. In addition, the inhibition in vivo at 25 mg/kg in the data set with HCT-116 [12] came out at 31.7%. The results for the IC50 (with HCT-116 [15]; in data set [18]) were 0.75 µM and 0.371 µM, respectively. For the same molecule, the half-life in [19] was 1.73 h. Further, in the data set with HCT-116 [21], the result was Active.
